Laboratory results: patent publication US8497349B2, “Use of multivalent synthetic ligands of surface nucleolin for treating cancer or inflammation” (Centre National de la Recherche Scientifique (CNRS), priority 2006, dated 2013)
Side chains are listed from the residue outwards. Peptide text beside a SMILES is read from it. * marks the point of attachment. X1 = NCCCC[C@H](N)CN1CCC[C@H]1C(=O)*

Assays:
surface nucleolin = biological target: T1, surface nucleolin (Homo sapiens, UniProt P19338); assay: Activity of surface nucleolin in HeLa P4 cells; assay type: cell-based
T1 construct: endogenous in cells; host or cells: HeLa P4 cells
Method: FIG. 15. Nucant 6 and Nucant 7 show better anti-surface nucleolin activity than HB-19. ID50: concentration in μM which inhibits surface nucleolin by 50%. ID95: concentration in μM which inhibits surface nucleolin by 95%.
The activity of surface nucleolin was tested in HeLa P4 cells using the technique we have described previously (13).

NIH-3T3 cells = assay: Proliferation of NIH-3T3 cells stimulated by 5% foetal calf serum (tritiated thymidine incorporation); assay type: cell-based; settings: non-stimulated NIH-3T3 cells
Method: FIG. 5. Effect of HB-19 on the proliferation of NIH-3T3 cells stimulated by 0.2 nM FGF-2 (A) or by 5% foetal calf serum (B). Quiescent NIH-3T3 cells are stimulated by FGF-2 or by 5% serum in the presence or not of HB19 at the concentrations indicated. After 24 hours of incubation, cell proliferation was determined by measuring the incorporation of tritiated thymidine. The results are given as a percentage with respect to the control stimulated by HARP (100%). MSD (threshold), (**p<0.01 and ***p<0.001).
FIG. 14. Effect of NUCANT 3, 6 and 7 on the proliferation of NIH-3T3 cells stimulated by 5% FCS. […] After 24 hours of incubation, cell proliferation was determined by measuring the incorporation of tritiated thymidine. […]
The effect of Nucant 3 on the proliferation of NIH-3T3 cells treated by 5% of FCS was also compared to that of compound HB-19. […] After 24 hours in incubation, cell proliferation is determined by measuring the incorporation of tritiated thymidine as described earlier.
The effect of hexavalent compounds Nucant 6 and Nucant 7 on the proliferation of NIH-3T3 cells triggered by 5% FCS was compared with that of pentavalent compound HB-19. […] After 24 hours of incubation, cell proliferation was determined by measuring the incorporation of tritiated thymidine as described above.

MDA-MB231 tumours = assay: Tumour growth in MDA-MB231 xenograft model in athymic mice; assay type: in vivo, athymic mice (nude/nude)
Method: FIG. 9. Effect of HB-19 on tumour growth in an MDA-MB231 xenograft model. Human mammary carcinoma MDA-MB231 cells were injected subcutaneously athymic mice (nude). When the tumour reached a volume of 200 mm^3, mice were treated by subcutaneous route as shown in graph in A. B. Observation and measurement of tumours in mice sacrificed at day 40. C. Tumour weight in mice sacrificed at day 40.
FIG. 10. Effect of HB-19 on tumour growth in an MDA-MB231 xenograft model. Changes in tumour growth. Intraperitoneal (IP) or subcutaneous (SC) injections.
Groups of 4 athymic mice (nude/nude) were injected in the flank with 2×10^6 cells. When tumour volume reached at least 200 mm^3, mice were either treated or not by injection in the tumour (peritumoral or subcutaneous route) of 100 μl every two days of a PBS solution (control group) or HB-19 solution (5 mg/kg) or a commonly used clinical agent, tamoxifen (also called […], 10 mg/kg). Tumour size was measured on days 7, 14, 21, 28, 34 and 40 using a calliper.
In another experiment, HB19 (5 mg/kg) was administered by intraperitoneal route (IP) and peritumoral route (SC) (FIG. 10).

[1] = cited from earlier work
[2] = 10 mg/kg, mice sacrificed after 40 days of treatment

T1 sequence (P19338 whole entry): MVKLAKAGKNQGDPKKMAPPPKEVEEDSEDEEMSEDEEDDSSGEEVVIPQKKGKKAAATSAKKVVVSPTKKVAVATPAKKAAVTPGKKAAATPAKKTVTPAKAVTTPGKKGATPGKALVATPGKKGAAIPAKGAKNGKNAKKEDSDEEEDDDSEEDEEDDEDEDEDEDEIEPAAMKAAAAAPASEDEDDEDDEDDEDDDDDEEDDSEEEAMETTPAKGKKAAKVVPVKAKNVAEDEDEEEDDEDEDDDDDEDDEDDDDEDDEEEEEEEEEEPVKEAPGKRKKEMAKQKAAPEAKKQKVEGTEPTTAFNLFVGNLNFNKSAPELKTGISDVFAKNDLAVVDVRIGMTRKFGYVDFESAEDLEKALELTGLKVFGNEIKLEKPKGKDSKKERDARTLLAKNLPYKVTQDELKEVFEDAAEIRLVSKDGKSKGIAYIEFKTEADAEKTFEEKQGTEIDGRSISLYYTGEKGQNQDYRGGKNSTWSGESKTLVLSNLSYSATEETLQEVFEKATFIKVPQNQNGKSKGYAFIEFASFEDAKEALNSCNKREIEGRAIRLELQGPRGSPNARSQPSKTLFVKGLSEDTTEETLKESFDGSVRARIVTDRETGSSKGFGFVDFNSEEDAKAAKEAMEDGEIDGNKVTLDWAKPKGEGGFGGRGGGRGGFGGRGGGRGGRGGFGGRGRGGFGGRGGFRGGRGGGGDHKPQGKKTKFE

CC(=O)N[C@@H](CCCCNC(=O)[C@H](CCCNC(=N)N)NC(=O)[C@@H]1CCCN1C[C@@H](N)CCCCN)C(=O)N[C@@H](C)C(=O)N[C@@H](CCCCNC(=O)[C@H](CCCNC(=N)N)NC(=O)[C@@H]1CCCN1C[C@@H](N)CCCCN)C(=O)N1CCC[C@H]1C(=O)NCC(=O)N[C@@H](CCCCNC(=O)[C@H](CCCNC(=N)N)NC(=O)[C@@H]1CCCN1C[C@@H](N)CCCCN)C(=O)N[C@@H](C)C(=O)N[C@@H](CCCCNC(=O)[C@H](CCCNC(=N)N)NC(=O)[C@@H]1CCCN1C[C@@H](N)CCCCN)C(=O)N1CCC[C@H]1C(=O)NCC(=O)N[C@@H](CCCCNC(=O)[C@H](CCCNC(=N)N)NC(=O)[C@@H]1CCCN1C[C@@H](N)CCCCN)C(=O)N[C@@H](C)C(=O)N[C@@H](CCCCNC(=O)[C@H](CCCNC(=N)N)NC(=O)[C@@H]1CCCN1C[C@@H](N)CCCCN)C(=O)N1CCC[C@H]1C(=O)NCC(N)=O [Nucant 7] (Ac-K([Arg-X1])AK([Arg-X1])PGK([Arg-X1])AK([Arg-X1])PGK([Arg-X1])AK([Arg-X1])PG-NH2)
inhibition at 0.8 µM (surface nucleolin; M-HeLa, 0.8 μM): > 95%
IC50 (surface nucleolin; read-out: ID50 value (Inhibitory Dose at 50%), surface nucleolin activity): < 100 nM
effect on non-stimulated cells (toxicity) (NIH-3T3 cells): No effect

CC/C(=C(\c1ccccc1)c1ccc(OCCN(C)C)cc1)c1ccccc1 [tamoxifen]
change of tumour volume from the start of treatment (MDA-MB231 tumours; 10 mg/kg every two days): did not change in a significant manner
average weight of tumours (MDA-MB231 tumours; [2]): 0.06 g
distribution of tumour weight (MDA-MB231 tumours; [2]): 0.006 to 0.22 g

Avastin: anti-angiogenic agent
survival ([1]; complement to chemotherapy (irinotecan/5-fluorouracile/leucovorin)): 20.3 months
length of time during which the tumour did not grow ([1]; complement to chemotherapy): 10.6 months
